Assay results published in the NIST ThermoML archive (doi:10.1021/je101178u).
“And” between values parts separate entries of the source, which are not always exact repeats. Equal entries are not always repeated.

Settings: 307.15 K, Fluid (supercritical or subcritical phases); for mass density: Buoyancy - hydrostatic balance with magnetic suspension - one sinker; for viscosity: vibrating wire

CC [ethane]
Settings | mass density | viscosity
2134.4 kPa | 30.049 kg/m3 | 0.01007 mPa·s
2134.5 kPa | 30.051 kg/m3 | 0.01006 mPa·s
2653.6 kPa | 39.629 kg/m3 | 0.01038 mPa·s
2653.7 kPa | 39.631 kg/m3 | 0.01038 mPa·s
2674.2 kPa | 40.039 kg/m3 and 40.038 kg/m3 | 0.01034 mPa·s
2674.3 kPa | 40.04 kg/m3 | 0.01034 mPa·s
3138.1 kPa | 50.006 kg/m3 | 0.01066 mPa·s
3138.2 kPa | 50.008 kg/m3 | 0.01066 mPa·s
3138.4 kPa | 50.012 kg/m3 | 0.01066 mPa·s
3539.6 kPa | 60.147 kg/m3 | 0.01103 mPa·s
3539.8 kPa | 60.154 kg/m3 | 0.01103 mPa·s
3815.6 kPa | 68.316 kg/m3 | 0.01142 mPa·s
3821.7 kPa | 68.511 kg/m3 | 0.01143 mPa·s
3889 kPa | 70.711 kg/m3 | 0.01145 mPa·s
3892.4 kPa | 70.823 kg/m3 | 0.01146 mPa·s
4150.5 kPa | 80.267 kg/m3 | 0.01188 mPa·s
4151.6 kPa | 80.309 kg/m3 | 0.01189 mPa·s
4152 kPa | 80.328 kg/m3 | 0.01189 mPa·s
4152.4 kPa | 80.342 kg/m3 | 0.01189 mPa·s
4328.6 kPa | 88.031 kg/m3 | 0.01226 mPa·s
4329.5 kPa | 88.072 kg/m3 | 0.01226 mPa·s
4330.1 kPa | 88.099 kg/m3 | 0.01227 mPa·s
4330.4 kPa | 88.116 kg/m3 | 0.01226 mPa·s
4331.5 kPa | 88.167 kg/m3 | 0.01226 mPa·s
4514.6 kPa | 97.86 kg/m3 | 0.01277 mPa·s
4516.2 kPa | 97.954 kg/m3 | 0.01278 mPa·s
4517.4 kPa | 98.024 kg/m3 | 0.01279 mPa·s
4518.3 kPa | 98.079 kg/m3 | 0.01279 mPa·s
4519.2 kPa | 98.129 kg/m3 | 0.01279 mPa·s
4557.7 kPa | 100.499 kg/m3 | 0.01302 mPa·s
4558.1 kPa | 100.521 kg/m3 | 0.01302 mPa·s
4736.3 kPa | 113.82 kg/m3 | 0.01371 mPa·s
4736.7 kPa | 113.852 kg/m3 | 0.01371 mPa·s
4939.2 kPa | 140.104 kg/m3 | 0.01552 mPa·s
4939.3 kPa | 140.112 kg/m3 | 0.01552 mPa·s
5008.9 kPa | 160.457 kg/m3 and 160.473 kg/m3 | 0.01729 mPa·s
5019.4 kPa | 165.641 kg/m3 and 165.625 kg/m3 | 0.01766 mPa·s
5019.5 kPa | 165.654 kg/m3 | 0.01767 mPa·s
5042.9 kPa | 182.964 kg/m3 | 0.01932 mPa·s
5043 kPa | 183.065 kg/m3 and 183.021 kg/m3 | 0.01933 mPa·s and 0.01932 mPa·s
5050.1 kPa | 191.037 kg/m3 | 0.02022 mPa·s
5050.2 kPa | 191.169 kg/m3 | 0.02023 mPa·s
5051 kPa | 192.154 kg/m3 and 192.131 kg/m3 | 0.02026 mPa·s
5051.1 kPa | 192.228 kg/m3 and 192.185 kg/m3 | 0.02028 mPa·s
5058.7 kPa | 202.521 kg/m3 and 202.456 kg/m3 | 0.02133 mPa·s and 0.02132 mPa·s
5058.8 kPa | 202.654 kg/m3 and 202.599 kg/m3 and 202.583 kg/m3 | 0.02137 mPa·s and 0.02136 mPa·s and 0.02133 mPa·s
5060.1 kPa | 204.501 kg/m3 | 0.02168 mPa·s
5060.2 kPa | 204.534 kg/m3 and 204.598 kg/m3 | 0.02168 mPa·s
5060.3 kPa | 204.743 kg/m3 and 204.709 kg/m3 | 0.02159 mPa·s and 0.02158 mPa·s
5060.4 kPa | 204.805 kg/m3 | 0.02159 mPa·s
5062 kPa | 207.173 kg/m3 | 0.02199 mPa·s
5062.1 kPa | 207.31 kg/m3 | 0.02199 mPa·s
5062.2 kPa | 207.441 kg/m3 | 0.022 mPa·s
5064.1 kPa | 209.963 kg/m3 and 209.982 kg/m3 and 209.961 kg/m3 | 0.02215 mPa·s and 0.02216 mPa·s
5064.2 kPa | 210.139 kg/m3 and 210.11 kg/m3 | 0.02219 mPa·s
5065.4 kPa | 211.657 kg/m3 and 211.736 kg/m3 | 0.02255 mPa·s
5065.5 kPa | 211.805 kg/m3 | 0.02255 mPa·s
5105 kPa | 242.924 kg/m3 and 242.96 kg/m3 | 0.02579 mPa·s
5105.1 kPa | 243 kg/m3 | 0.02579 mPa·s
5105.2 kPa | 243.012 kg/m3 | 0.0258 mPa·s
5160.6 kPa | 259.321 kg/m3 | 0.02781 mPa·s
5160.9 kPa | 259.389 kg/m3 | 0.02781 mPa·s
5161 kPa | 259.401 kg/m3 and 259.396 kg/m3 | 0.02781 mPa·s and 0.0278 mPa·s
5187.1 kPa | 264.206 kg/m3 | 0.02852 mPa·s
5187.4 kPa | 264.252 kg/m3 | 0.02852 mPa·s
5187.6 kPa | 264.291 kg/m3 | 0.02852 mPa·s
5348.1 kPa | 282.102 kg/m3 | –
